Measurements taken from patent US3984432A, “Color photographic recording material” (priority 1973, dated 1976).

Test: Absorption maximum after colour development in a photographic silver halide layer according to Use Example I
Assay type: physicochemical
Conditions: not given
Procedure: The compounds of the formulae which follow are prepared according to methods which are in themselves known, from the corresponding 4-equivalentcoupling agents (the corresponding compounds with hydrogen in the position marked with *, in place of the substituents drawn). With regard to methods of manufacture, compare DT-OS or DT-AS 1,236,332, 2,043,271, 1,547,672 or 1,187,477. Next to the formula, the absorption maximum in nm is specified in each case (see footnote to Table I). ##SPC8##
*)After colour development of the coupling agents in a photographic silve
halide layer according to Use Example I
0.3 mmol of coupling agent of the formula (215) is dissolved in 2.0 ml of tricresyl phosphate/methylene chloride (3:7). The methylene chloride is evaporated off, 6.0 ml of an 8% strength aqueous solution of sodium isopropylnaphthalene-sulphonate, 20.0 ml of 6% strength gelatine solution and 3.4 ml of water are added and the mixture is adjusted to pH 6.5 and emulsified for 5 minutes by means of an ultrasonic apparatus with an output of 100 watt.
5.0 of coupling agent emulsion freshly treated with ultrasonics, 3.3 ml of silver bromide emulsion of pH 6.5, containing 1.4% of silver and 6.0% of gelatine, 2.0 ml of 1% strength aqueous solution of the hardener of the formula [formula] and 1.7 ml of water are mixed with one another and cast at 40°C on a substrated glass plate of size 13 cm × 18 cm. After solidifying at 10° C, the plate is dried in a drying cabinet with circulating air at 32° C.
A strip cut to 4.0 cm × 6.5 cm is exposed to 500 Lux/cm^2 under a step wedge for 2 seconds and is subsequently treated at 24° C as follows: […]

| Compound | Abs.max. (single maximum) [nm] |
| --- | --- |
| CCCCOP(=O)(CCCc1ccc(NC(=O)c2ccc(OC)c(NC(=O)CC(=O)c3ccc(OC)cc3)c2)cc1)OCCCC [(126)] | 448 |
| CCCCOP(=O)(CCCOc1cccc(C(=O)Nc2cccc(C(=O)CC(=O)Nc3cc(C)ccc3OC)c2)c1)OCCCC [(121)] | 434 |
| CCOP(=O)(CCCOc1cccc(NC(=O)c2ccc3ccccc3c2O)c1)OCC [(601)] | 704 |
| COc1ccc(C(=O)NCCCP(=O)(OC(C)C)OC(C)C)cc1NC(=O)CC(=O)c1ccc(Cl)cc1 [(127)] | 444 |
| CCCCOP(=O)(CCCC)Oc1cccc(NC(=O)Cc2ccc(NC(=O)CC(=O)c3ccccc3Cl)cc2)c1 (centres unmarked) [(138)] | 442 |
| CCOP(=O)(CCCOc1cccc(C(=O)Nc2cccc(C(=O)CC(=O)Nc3cc(C)ccc3OC)c2)c1)OCC [(112)] | 440 |
| CC(C)(C)P(=O)(Oc1ccccc1)Oc1ccc(NC(=O)CC(=O)c2ccccc2)cc1 (centres unmarked) [(129)] | 440 |
| CCOP(=O)(CCCc1ccc(NC(=O)CC(=O)C(C)(C)C)cc1)OCC [(103)] | 429 |
| CCCCC(CC)COP(=O)(CCCOc1cccc(NC(=O)CC(=O)c2ccccc2)c1)OCC(CC)CCCC (centres unmarked) [(122)] | 436 |
| Cc1ccc(C(=O)NCCCP2(=O)OCC(C)(C)CO2)cc1NC(=O)CC(=O)c1ccc(Cl)cc1 [(139)] | 441 |
| CCCCOP(=O)(CCCc1ccc(NC(=O)CC(=O)c2ccc(Cl)cc2)cc1)OCCCC [(125)] | 440 |
| CC(C)CCOP(=O)(CCCc1ccc(NC(=O)CC(=O)c2ccc(Cl)cc2)cc1)OCCC(C)C [(132)] | 438 |
| CCOP(=O)(CCCN(C)c1cccc(NC(=O)CC(=O)c2ccccc2)c1)OCC [(104)] | 435 |
| CCCCOP(=O)(CCCOc1cccc(NC(=O)CC(=O)c2ccccc2)c1)OCCCC [(123)] | 436 |
| CCCCOP(=O)(CCCc1ccc(NC(=O)CC(=O)c2ccccc2)cc1)OCCCC [(124)] | 436 |
| CCCCOP(=O)(OCCCC)C(CC)OC(=O)c1ccc(NC(=O)CC(=O)c2ccccc2OC)cc1 (centres unmarked) [(142)] | 435 |
| CCCCOP(=O)(CCCOc1cccc(NC(=O)c2ccc3ccccc3c2O)c1)OCCCC [(602)] | 706 |
| CCOP(=O)(OCC)C(C)(C)NC(=O)c1cccc(NC(=O)CC(=O)c2ccc([N+](=O)[O-])cc2)c1 [(110)] | 440 |

Same assay, conditions: pyrazolone coupling agents

| Compound | Abs.max., first of two maxima (subsidiary maximum) [nm] | Abs.max., second of two maxima (absorption maximum) [nm] |
| --- | --- | --- |
| CCOP(=O)(CCCOc1cc(OCCCP(=O)(OCC)OCC)cc(C(=O)Nc2ccc(C(=O)NC3=NN(c4c(Cl)cc(Cl)cc4Cl)C(=O)C3)cc2)c1)OCC [(208)] | 434 | 546 |
| CCCCOP(=O)(CCCOc1cccc(C(=O)Nc2cccc(NC3=NN(c4ccc(S(=O)(=O)N(CC)CC)cc4)C(=O)C3)c2)c1)OCCCC [(427)] | 431 | 538 |
| CCCCOP(=O)(CCCOc1cc(OCCCP(=O)(OCCCC)OCCCC)cc(C(=O)Nc2ccc(C(=O)NC3=NN(c4c(Cl)cc(Cl)cc4Cl)C(=O)C3)cc2)c1)OCCCC [(218)] | 436 | 542 |
| CCCCOP(=O)(CCCOc1cc(OCCCP(=O)(OCCCC)OCCCC)cc(C(=O)NC2=NN(c3c(Cl)cc(Cl)cc3Cl)C(=O)C2)c1)OCCCC [(221)] | 436 | 538 |
| CCCCC(CC)COP(=O)(CCCOc1cccc(C(=O)Nc2cccc(C(=O)NC3=NN(c4c(Cl)cc(Cl)cc4Cl)C(=O)C3)c2)c1)OCC(CC)CCCC (centres unmarked) [(219)] | 436 | 542 |
| CCOP(=O)(CCCOc1cc(OCCCP(=O)(OCC)OCC)cc(C(=O)NC2=NN(c3c(Cl)cc(Cl)cc3Cl)C(=O)C2)c1)OCC [(209)] | 436 | 540 |
| CCCCOP(=O)(CCCOc1cccc(C(=O)Nc2cccc(C(=O)NC3=NN(c4ccccc4)C(=O)C3)c2)c1)OCCCC [(224)] | 440 | 534 |
| CCCCOP(=O)(CCCOc1cc(OCCCP(=O)(OCCCC)OCCCC)cc(C(=O)Nc2cccc(NC3=NN(c4ccccc4)C(=O)C3)c2)c1)OCCCC [(423)] | 430 | 530 |
| CCCCC(CC)COP(=O)(CCCOc1cccc(C(=O)Nc2cccc(NC3=NN(c4c(Cl)cc(Cl)cc4Cl)C(=O)C3)c2)c1)OCC(CC)CCCC (centres unmarked) [(422)] | 426 | 530 |
| CCOP(=O)(CCCc1ccc(NC2=NN(c3ccccc3)C(=O)C2)cc1)OCC [(407)] | 429 | 527 |
| CC(C)OP(=O)(CCCOc1cccc(C(=O)NC2=NN(c3c(Cl)cc(Cl)cc3Cl)C(=O)C2)c1)OC(C)C [(217)] | 435 | 538 |
| CCCCC(CC)COP(=O)(CCCOc1cccc(C(=O)Nc2cccc(C(=O)NC3=NN(c4c(Cl)cc(OC)cc4Cl)C(=O)C3)c2)c1)OCC(CC)CCCC (centres unmarked) [(267)] | 436 | 536 |
| CCOP(=O)(CCCOc1ccc(NC2=NN(c3c(Cl)cc(Cl)cc3Cl)C(=O)C2)cc1)OCC [(404)] | 425 | 530 |
| CC(C)OP(=O)(CCCCCOc1cc(OCCCCCP(=O)(OC(C)C)OC(C)C)cc(C(=O)Nc2cccc(C(=O)NC3=NN(c4ccccc4)C(=O)C3)c2)c1)OC(C)C [(239)] | 440 | 532 |
| CCCCC(CC)COP(=O)(CCCOc1ccc(C(=O)Nc2cccc(C(=O)NC3=NN(c4c(Cl)cc(Cl)cc4Cl)C(=O)C3)c2)c(OCCCP(=O)(OCC(CC)CCCC)OCC(CC)CCCC)c1)OCC(CC)CCCC (centres unmarked) [(251)] | 436 | 540 |
| CCCCOP(=O)(CCCOc1cccc(C(=O)Nc2cccc(NC3=NN(c4ccccc4)C(=O)C3)c2)c1)OCCCC [(418)] | 430 | 530 |
| CCOP(=O)(CCCOc1cccc(C(=O)Nc2cccc(C(=O)NC3=NN(c4c(Cl)cc(Cl)cc4Cl)C(=O)C3)c2)c1)OCC [(205)] | 434 | 542 |
| CCCCC(CC)COP(=O)(CCCOc1cccc(C(=O)Nc2cccc(C(=O)NC3=NN(c4c(Cl)cc(Cl)cc4OC)C(=O)C3)c2)c1)OCC(CC)CCCC (centres unmarked) [(268)] | 438 | 540 |
| CCCCOP(=O)(CCCOc1cc(OCCCP(=O)(OCCCC)OCCCC)cc(C(=O)Nc2cccc(C(=O)NC3=NN(c4c(Cl)cc(Cl)cc4Cl)C(=O)C3)c2)c1)OCCCC [(222)] | 434 | 544 |
| CCCCOP(=O)(CCCOc1cccc(C(=O)NC2=NN(c3c(Cl)cc(Cl)cc3Cl)C(=O)C2)c1)OCCCC [(237)] | 432 | 536 |
| CCCCC(CC)COP(=O)(CCCOc1cccc(C(=O)Nc2ccc(C(=O)NC3=NN(c4c(Cl)cc(Cl)cc4Cl)C(=O)C3)cc2)c1)OCC(CC)CCCC (centres unmarked) [(215)] | 434 | 540 |
| CCCCOP(=O)(CCCOc1cccc(NC2=NN(c3ccccc3)C(=O)C2)c1)OCCCC [(412)] | 430 | 528 |
| CCCCOP(=O)(CCCOc1cc(OCCCP(=O)(OCCCC)OCCCC)cc(C(=O)Nc2cccc(NC(=O)NC3=NN(c4c(Cl)cc(Cl)cc4Cl)C(=O)C3)c2)c1)OCCCC [(273)] | 430 | 547 |
| CCCCC(CC)COP(=O)(CCCOc1cc(OCCCP(=O)(OCC(CC)CCCC)OCC(CC)CCCC)cc(C(=O)Nc2cccc(C(=O)NC3=NN(c4ccccc4)C(=O)C3)c2)c1)OCC(CC)CCCC (centres unmarked) [(235)] | 440 | 532 |
| CCOP(=O)(CCCOc1ccc(NC2=NN(c3ccccc3)C(=O)C2)cc1)OCC [(405)] | 428 | 526 |
| CCCCOP(=O)(CCCOc1cccc(NC2=NN(c3c(Cl)cc(Cl)cc3Cl)C(=O)C2)c1)OCCCC [(409)] | 426 | 530 |
| CCOP(=O)(CCCOc1cccc(NC2=NN(c3ccccc3)C(=O)C2)c1)OCC [(401)] | 429 | 524 |
| CCOP(=O)(CCCOc1cccc(NC2=NN(c3cccc(Cl)c3)C(=O)C2)c1)OCC [(402)] | 430 | 534 |
